In paper PMC4110978 (Expert opinion on drug metabolism & toxicology, 2009):

Key:
rat hepatocytes = experiment: Metabolic clearance in 3D perfused bioreactor; settings: day 6, two experiments; probe incubated 24 h; disappearance by LC/MS/MS
human hepatocytes = experiment: Metabolic clearance in 3D perfused bioreactor; settings: day 4, four experiments; probe incubated 24 h; disappearance by LC/MS/MS

Cc1ncc2n1-c1ccc(Cl)cc1C(c1ccccc1F)=NC2 [Midazolam]
Clearance values, Rat LiverChip (rat hepatocytes): 38 µL per min, per million cells | Clearance values, Human LiverChip (human hepatocytes): 13 µL per min, per million cells

C=CCN1CC[C@]23c4c5ccc(O)c4O[C@H]2C(=O)CC[C@@]3(O)[C@H]1C5 [Naloxone]
Clearance values, Rat LiverChip (rat hepatocytes): 39 µL per min, per million cells | Clearance values, Human LiverChip (human hepatocytes): 29 µL per min, per million cells
